SMILES strings stand for the structures. Where only a bound is given, the exact number is not on record here.

Test [1] concerns A2780 ovarian cells. The test is described as follows: A2780 ovarian cell proliferation assay in lipid reduced medium, with palmitate (MTT). In kind it is cell-based. Conditions: Homo sapiens, A2780, 96 h; read-out: pIC50 A2780 Ovarian Cell, With Palmitate (converted). The essentials: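 In this palmitate-supplemented format, compound dilutions (30 μM down to 0.01 μM) are added to cells in lipid-reduced serum with 25 μM palmitate, 0.2% fatty-acid-free BSA and 0.25% ethanol. After four days (96 h) MTT absorbance at 544 nm is recorded and fitted by minimum sum of squares.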

Test [2] concerns the target Fatty Acid Synthase Keto-reductase Domain (FASN KR) (Homo sapiens, UniProt P49327). The test is described as follows: Fatty Acid Synthase keto-reductase domain (FASN KR) inhibition, NADPH oxidation at 340 nm.
Experimental: After 20 minutes incubation at room temperature the plate was measured again (T2).
The decrease in absorbance was calculated as (Absorbance before incubation T1)−(Absorbance following incubation T2).
A plot of Controlmin versus test compound concentration was fitted to a 4-parameter logistic curve using a non-linear least squares regression method.
The target in test [3] is T1, hFASN enzyme (full length) (Homo sapiens, UniProt P49327).
T1 construct: 10 μL hFASN enzyme (full length, 300 ng, purified in house); made in house
T1 sequence (P49327 whole entry): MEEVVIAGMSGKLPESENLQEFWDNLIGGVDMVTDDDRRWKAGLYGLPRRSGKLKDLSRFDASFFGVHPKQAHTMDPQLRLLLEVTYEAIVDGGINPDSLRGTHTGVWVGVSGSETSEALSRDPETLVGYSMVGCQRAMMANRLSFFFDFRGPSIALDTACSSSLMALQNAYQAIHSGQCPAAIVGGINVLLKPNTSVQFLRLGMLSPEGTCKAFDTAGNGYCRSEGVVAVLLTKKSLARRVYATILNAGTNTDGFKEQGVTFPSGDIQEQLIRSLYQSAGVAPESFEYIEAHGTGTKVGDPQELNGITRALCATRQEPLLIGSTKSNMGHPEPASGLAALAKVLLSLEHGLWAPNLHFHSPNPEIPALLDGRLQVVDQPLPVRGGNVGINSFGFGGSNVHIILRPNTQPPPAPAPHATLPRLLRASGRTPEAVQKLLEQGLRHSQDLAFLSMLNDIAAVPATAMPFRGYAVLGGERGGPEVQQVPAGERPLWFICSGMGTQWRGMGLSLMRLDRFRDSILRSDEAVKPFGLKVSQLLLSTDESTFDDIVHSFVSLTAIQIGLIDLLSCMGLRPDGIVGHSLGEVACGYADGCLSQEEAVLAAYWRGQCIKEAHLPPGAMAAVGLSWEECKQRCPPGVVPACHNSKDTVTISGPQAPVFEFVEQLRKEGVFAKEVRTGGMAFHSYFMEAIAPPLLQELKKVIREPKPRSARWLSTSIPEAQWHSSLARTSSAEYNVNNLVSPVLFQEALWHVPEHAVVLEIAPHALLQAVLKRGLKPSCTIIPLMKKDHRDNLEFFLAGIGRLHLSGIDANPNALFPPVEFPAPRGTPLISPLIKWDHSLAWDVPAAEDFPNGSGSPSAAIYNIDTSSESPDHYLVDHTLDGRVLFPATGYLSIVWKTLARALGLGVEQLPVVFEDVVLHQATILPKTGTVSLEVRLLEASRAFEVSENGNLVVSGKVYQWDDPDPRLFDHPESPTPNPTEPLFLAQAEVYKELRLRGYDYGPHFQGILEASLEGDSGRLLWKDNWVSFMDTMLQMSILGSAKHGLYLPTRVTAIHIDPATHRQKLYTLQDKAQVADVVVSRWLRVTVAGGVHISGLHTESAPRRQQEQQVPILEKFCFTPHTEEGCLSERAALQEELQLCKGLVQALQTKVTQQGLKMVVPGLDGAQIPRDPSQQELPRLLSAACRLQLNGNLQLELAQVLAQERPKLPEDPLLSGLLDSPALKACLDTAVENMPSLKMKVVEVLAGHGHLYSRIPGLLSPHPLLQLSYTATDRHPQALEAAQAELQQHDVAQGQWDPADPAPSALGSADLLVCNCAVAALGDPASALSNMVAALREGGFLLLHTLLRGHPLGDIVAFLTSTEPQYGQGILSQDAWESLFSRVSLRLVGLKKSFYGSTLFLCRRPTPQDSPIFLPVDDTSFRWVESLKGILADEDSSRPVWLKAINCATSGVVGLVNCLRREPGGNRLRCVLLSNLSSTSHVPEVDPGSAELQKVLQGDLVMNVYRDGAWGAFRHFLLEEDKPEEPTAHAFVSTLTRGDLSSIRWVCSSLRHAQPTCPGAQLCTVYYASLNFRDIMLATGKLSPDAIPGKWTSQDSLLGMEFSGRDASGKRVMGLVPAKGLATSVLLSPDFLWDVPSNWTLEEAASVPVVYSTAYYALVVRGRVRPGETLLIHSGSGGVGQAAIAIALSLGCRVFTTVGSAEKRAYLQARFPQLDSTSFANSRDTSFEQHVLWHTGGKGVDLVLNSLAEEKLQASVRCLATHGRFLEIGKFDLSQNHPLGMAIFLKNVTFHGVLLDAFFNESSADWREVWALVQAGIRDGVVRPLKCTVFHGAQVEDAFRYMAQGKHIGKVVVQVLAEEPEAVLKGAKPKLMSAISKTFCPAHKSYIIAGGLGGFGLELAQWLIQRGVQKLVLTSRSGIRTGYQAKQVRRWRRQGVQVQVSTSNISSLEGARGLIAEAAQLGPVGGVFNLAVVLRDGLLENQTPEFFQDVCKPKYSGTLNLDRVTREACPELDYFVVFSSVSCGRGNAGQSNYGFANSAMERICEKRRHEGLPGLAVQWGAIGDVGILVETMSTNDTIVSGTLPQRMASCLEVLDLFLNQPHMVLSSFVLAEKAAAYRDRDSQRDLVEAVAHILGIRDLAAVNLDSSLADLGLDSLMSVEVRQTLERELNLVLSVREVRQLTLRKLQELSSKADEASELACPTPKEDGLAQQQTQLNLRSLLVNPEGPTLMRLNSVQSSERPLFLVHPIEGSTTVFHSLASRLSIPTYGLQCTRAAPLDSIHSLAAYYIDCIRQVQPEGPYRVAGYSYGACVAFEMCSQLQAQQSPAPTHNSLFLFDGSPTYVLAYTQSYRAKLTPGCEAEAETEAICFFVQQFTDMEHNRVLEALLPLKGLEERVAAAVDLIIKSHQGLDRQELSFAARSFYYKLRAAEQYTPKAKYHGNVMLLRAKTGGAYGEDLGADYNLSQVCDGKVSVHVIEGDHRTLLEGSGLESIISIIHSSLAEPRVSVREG
Briefly: Fatty Acid Synthase (FASN) inhibition scintillation proximity assay. In kind it is biochemical. Conditions: for inhibition at 10 µM: read-out: Human FASN % inhibition @ 10 μM, 10 μM test compound; for IC50: read-out: Human FASN pIC50 (converted). In outline:
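Read-out relies on hydrophobic ³H-palmitate product, formed from ³H-acetyl-CoA and malonyl-CoA, binding streptavidin imaging beads, measured at 610±20 nm after at least 24 h. Full-length enzyme (300 ng) in phosphate buffer pH 7.5 with DTT; eight compound concentrations, 0.01–30 μM.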
On the technique in general: In a scintillation proximity assay essentially only radioactivity close to the scintillant gives light.

Test [4] deals with LNCaP-Vancouver prostate cells. The test is described as follows: In vitro LNCaP Vancouver prostate cell proliferation assay in lipid reduced medium. In kind it is cell-based. The note with it: read-out: pIC50 LNCaP_Vancouver prostate cell (converted).
Test [5] relates to PC-3M-Luc-C6 prostate cells. Briefly: In vitro PC-3M-Luc-C6 prostate cell proliferation assay in lipid reduced medium. In kind it is cell-based. Conditions: 96 h, read-out: pIC50 PC-3M-Luc-C6 prostate cell (converted).
The test system of test [6] is A2780 ovarian cells. Briefly: A2780 ovarian cell proliferation assay in lipid reduced medium, without palmitate (MTT). Format: cell-based. Conditions: Homo sapiens, A2780, 96 h; read-out: pIC50 A2780 Ovarian Cell, Without Palmitate (converted).

Fatty Acid Synthase Keto-reductase Domain (FASN KR), sequence (P49327 whole entry, the tested form may be a part): as the sequence (P49327 whole entry) above

Consider `Cc1nn(C)c2ccc(-c3ccc(C4=NC5(CC5)C(=O)N4C[C@@H]4CCN(C(=O)C5CC5)C4)cc3)cc12` [compound 218, (R)-6-((1-(cyclopropanecarbonyl)pyrrolidin-3-yl)methyl)-5-(4-(1,3-dimethyl-1H-indazol-5-yl)phenyl)-4,6-diazaspiro[2.4]hept-4-en-7-one], for which the IC50 in test [1] was more than 10000 nM; in test [2], 102 nM; in test [3] it was 72.4 nM; in test [4], 417 nM; in test [5], 72.4 nM; in test [6], 85.1 nM. Also, in test [3], the inhibition at 10 µM is 95%.

Consider `Nc1cc2cc(-c3ccc(C4=NC5(CC5)C(=O)N4C[C@@H]4CCN(C(=O)C5CC5)C4)cc3)ccc2cn1` [compound 219, (R)-5-(4-(3-aminoisoquinolin-6-yl)phenyl)-6-((1-(cyclopropanecarbonyl)pyrrolidin-3-yl)methyl)-4,6-diazaspiro[2.4]hept-4-en-7-one], for which the IC50 in test [1] is 1170 nM; in test [2], 263 nM; in test [3] it was 75.9 nM; in test [4] it was 302 nM; in test [5], 126 nM; in test [6] it was 67.6 nM. Further, the inhibition at 10 µM in test [3] was determined as 103%.

As for `Cn1nc(C(N)=O)c2ccc(-c3ccc(C4=NC5(CC5)C(=O)N4C[C@@H]4CCN(C(=O)C5CC5)C4)cc3)cc21` [compound 221, (R)-6-(4-(6-((1-(cyclopropanecarbonyl)pyrrolidin-3-yl)methyl)-7-oxo-4,6-diazaspiro[2.4]hept-4-en-5-yl)phenyl)-1-methyl-1H-indazole-3-carboxamide], the IC50 in test [1] was 6920 nM; in test [2], 234 nM; in test [3], 97.7 nM; in test [4], approximately 380 nM; in test [5] it was 132 nM; in test [6] it was 46.8 nM. In test [3], the inhibition at 10 µM came out at 92%.

In the case of `N#Cc1ccc2cc(-c3ccc(C4=NC5(CC5)C(=O)N4CC4CN(C(=O)C5CC5)C4)c(F)c3)ccc2c1` [compound 222, 6-(4-(6-((1-(cyclopropanecarbonyl)azetidin-3-yl)methyl)-7-oxo-4,6-diazaspiro[2.4]hept-4-en-5-yl)-3-fluorophenyl)-2-naphthanitrile], the IC50 in test [1] is approximately 2450 nM; in test [2] it was approximately 51.3 nM; in test [3], 27.5 nM; in test [4], 46.8 nM; in test [5], 9.33 nM; in test [6] it was 6.17 nM. For the same compound, the inhibition at 10 µM in test [3] worked out at 103%.

As to `Cc1cc(-c2ccc3cc(C#N)ccc3c2)ccc1C1=NC2(CC2)C(=O)N1CC1CN(C(=O)C2CCO2)C1` (centres unmarked) [compound 224, 6-(3-methyl-4-(6-((1-(oxetane-2-carbonyl)azetidin-3-yl)methyl)-7-oxo-4,6-diazaspiro[2.4]hept-4-en-5-yl)phenyl)-2-naphthonitrile], the IC50 in test [1] is approximately 10000 nM; in test [2], 77.6 nM; in test [3], 25.1 nM; in test [4] it was 56.2 nM; in test [5], 12.6 nM; in test [6], 7.76 nM. Further, in test [3], the inhibition at 10 µM worked out at 103%.

For `N#Cc1ccc2cc(-c3ccc(C4=NC5(CC5)C(=O)N4CC4CN(C(=O)C5(F)CC5)C4)c(F)c3)ccc2c1` [compound 225, 6-(3-fluoro-4-(6-((1-(1-fluorocyclopropanecarbonyl)azetidin-3-yl)methyl)-7-oxo-4,6-diazaspiro[2.4]hept-4-en-5-yl)phenyl)-2-naphthonitrile], the IC50 in test [1] was 5250 nM; in test [2] it was 74.1 nM; in test [3] it was 38 nM; in test [4], 158 nM; in test [5] it was 26.9 nM; in test [6], 25.1 nM. For the same compound, the inhibition at 10 µM in test [3] was determined as 95%.

Turning to `N#Cc1ccc2cc(-c3ccc(C4=NC5(CC5)C(=O)N4CC4CN(C(=O)C5CCO5)C4)c(F)c3)ccc2c1` (centres unmarked) [compound 226, 6-(3-fluoro-4-(6-((1-(oxetane-2-carbonyl)azetidin-3-yl)methyl)-7-oxo-4,6-diazaspiro[2..4]hept-4-en-5-yl)phenyl)-2-naphthonitrile], the IC50 was more than 10000 nM in test [1]; 24 nM in test [2]; 23.4 nM in test [3]; 21.9 nM in test [4]; approximately 5.89 nM in test [5]; 2.34 nM in test [6]. Besides, in test [3], the inhibition at 10 µM was found to be 98%.

On to `Cn1cc2ccc(-c3ccc(C4=NC5(CC5)C(=O)N4CC4CN(C(=O)C5CC5)C4)c(F)c3)cc2n1` [compound 227, 6-((1-(cyclopropanecarbonyl)azetidin-3-yl)methyl)-5-(2-fluoro-4-(2-methyl-2H-indazol-6-yl)phenyl)-4,6-diazaspiro[2.4]hept-4-en-7-one], for which the IC50 in test [1] is more than 10000 nM; in test [2] it was 151 nM; in test [3], 42.7 nM; in test [4] it was 355 nM; in test [5] it was 55 nM; in test [6] it was 13.2 nM. The inhibition at 10 µM in test [3] is 99%.

In the case of `Cc1cc(C2=NC3(CC3)C(=O)N2C[C@@H]2CCN(C(=O)C3CC3)C2)ccc1-c1ccc2sc(C)c(C)c2c1` [compound 231, (R)-6-((1-(cyclopropanecarbonyl)pyrrolidin-3-yl)methyl)-5-(4-(2,3-dimethylbenzo[b]thiophen-5-yl)-3-methylphenyl)-4,6-diazaspiro[2.4]hept-4-em-7-one], the IC50 in test [1] was more than 6170 nM; in test [2], 282 nM; in test [3], 100 nM; in test [4], 2190 nM; in test [5], approximately 1620 nM; in test [6] it was 2510 nM. For the same compound, the inhibition at 10 µM in test [3] was found to be 108%.

Turning to `O=C(C1CC1)N1CC[C@@H](CN2C(=O)C3(CC3)N=C2c2ccc(-c3ccc4sccc4c3)c(F)c2)C1` [compound 233, (R)-5-(4-(benzo[b]thiophen-5-yl)-3-fluorophenyl)-6-((1-(cyclopropanecarbonyl)pyrrolidin-3-yl)methyl)-4,6-diazaspiro[2.4]hept-4-en-7-one], the IC50 was more than 10000 nM in test [1]; 93.3 nM in test [2]; 50.1 nM in test [3]; 1700 nM in test [4]; 575 nM in test [5]; 912 nM in test [6]. Also, in test [3], the inhibition at 10 µM came out at 110%.

With `O=C(C1CC1)N1CC[C@@H](CN2C(=O)C3(CC3)N=C2c2ccc(-c3ccc4[nH]ccc4c3)c(F)c2)C1` [compound 234, (R)-6-((1-(cyclopropanecarbonyl)pyrrolidin-3-yl)methyl)-5-(3-fluoro-4-(1H-indol-5-yl)phenyl)-4,6-diazaspiro[2.4]hept-4-en-7-one], the IC50 is more than 10000 nM in test [1]; 51.3 nM in test [2]; 20.9 nM in test [3]; 245 nM in test [4]; 23.4 nM in test [5]; approximately 28.8 nM in test [6]. For the same compound, the inhibition at 10 µM in test [3] was found to be 108%.

As for `O=C(C1CC1)N1CC[C@@H](CN2C(=O)C3(CC3)N=C2c2ccc(-c3ccc4cc[nH]c4c3)c(F)c2)C1` [compound 236, (R)-6-((1-(cyclopropanecarbonyl)pyrrolidin-3-yl)methyl)-5-(3-fluoro-4-(1H-indol-6-yl)phenyl)-4,6-diazaspiro[2.4]hept-4-en-7-one], the IC50 in test [1] was more than 10000 nM; in test [2], 95.5 nM; in test [3], 34.7 nM; in test [4], 646 nM; in test [5], 51.3 nM; in test [6], approximately 89.1 nM. Also, the inhibition at 10 µM in test [3] turned out to be 98%.

Turning to `O=C(C1CC1)N1CC[C@@H](CN2C(=O)C3(CC3)N=C2c2ccc(-c3cccc4[nH]ncc34)c(F)c2)C1` [compound 237, (R)-6-((1-(cyclopropanecarbonyl)pyrrolidin-3-yl)methyl)-5-(3-fluoro-4-(1H-indazol-4-yl)phenyl)-4,6-diazaspiro[2.4]hept-4-en-7-one], the IC50 in test [1] is more than 10000 nM; in test [2], 120 nM; in test [3], 79.4 nM; in test [4] it was 631 nM; in test [5] it was approximately 74.1 nM; in test [6], 35.5 nM. Besides, the inhibition at 10 µM in test [3] is 100%.

For the compound `Cc1cc(C2=NC3(CC3)C(=O)N2C[C@@H]2CCN(C(=O)C3CC3)C2)ccc1-c1ccc2[nH]ccc2c1` [compound 238, (R)-5-(4-(1H-indol-5-yl)-3-methylphenyl)-6-((1-(cyclopropanecarbonyl)pyrrolidin-3-yl)methyl)-4,6-diazaspiro[2.4]hept-4-en-7-one], the IC50 was more than 10000 nM in test [1]; 105 nM in test [2]; 43.7 nM in test [3]; 245 nM in test [4]; 70.8 nM in test [5]; 42.7 nM in test [6]. In test [3], the inhibition at 10 µM was found to be 98%.

By inhibition is commonly meant the relative decrease from the control value, in per cent.
